{"source": "ChEMBL document CHEMBL4879554", "about": "“Data for DCP probe GNE-2256” (2021)", "key": {"[1]": {"target": "Receptor-type tyrosine-protein kinase FLT3 (Homo sapiens, UniProt P36888)", "sequence (P36888 whole entry)": "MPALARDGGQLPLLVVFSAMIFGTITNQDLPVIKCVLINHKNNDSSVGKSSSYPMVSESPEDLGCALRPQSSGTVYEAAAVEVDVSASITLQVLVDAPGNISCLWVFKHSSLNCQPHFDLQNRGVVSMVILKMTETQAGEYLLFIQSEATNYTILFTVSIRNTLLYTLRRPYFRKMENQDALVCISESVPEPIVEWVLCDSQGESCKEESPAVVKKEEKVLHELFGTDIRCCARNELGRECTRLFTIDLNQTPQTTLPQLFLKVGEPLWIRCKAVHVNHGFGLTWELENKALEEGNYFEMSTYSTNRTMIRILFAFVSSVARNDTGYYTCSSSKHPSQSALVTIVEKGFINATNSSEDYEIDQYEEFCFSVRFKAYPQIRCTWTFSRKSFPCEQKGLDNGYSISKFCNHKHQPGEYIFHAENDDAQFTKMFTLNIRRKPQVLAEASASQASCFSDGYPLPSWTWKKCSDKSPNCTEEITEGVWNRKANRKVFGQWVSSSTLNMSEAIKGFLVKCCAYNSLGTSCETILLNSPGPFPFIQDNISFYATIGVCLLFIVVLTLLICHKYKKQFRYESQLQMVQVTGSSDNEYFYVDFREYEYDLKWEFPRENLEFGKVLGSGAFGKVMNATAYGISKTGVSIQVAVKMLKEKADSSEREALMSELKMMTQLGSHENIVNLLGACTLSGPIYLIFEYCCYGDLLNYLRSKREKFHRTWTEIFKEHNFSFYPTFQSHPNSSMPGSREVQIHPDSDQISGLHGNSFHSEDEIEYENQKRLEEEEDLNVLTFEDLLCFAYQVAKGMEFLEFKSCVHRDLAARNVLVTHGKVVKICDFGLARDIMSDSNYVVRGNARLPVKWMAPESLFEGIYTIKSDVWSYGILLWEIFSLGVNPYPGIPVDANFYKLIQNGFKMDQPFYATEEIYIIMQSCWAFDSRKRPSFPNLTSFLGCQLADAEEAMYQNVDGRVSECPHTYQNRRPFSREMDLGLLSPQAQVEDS", "experiment": "NanoBRET assay (FLT3, SGC Frankfurt); call rule not given here"}, "[2]": {"target": "Tyrosine-protein kinase JAK1 (Homo sapiens, UniProt P23458)", "sequence (P23458 whole entry)": "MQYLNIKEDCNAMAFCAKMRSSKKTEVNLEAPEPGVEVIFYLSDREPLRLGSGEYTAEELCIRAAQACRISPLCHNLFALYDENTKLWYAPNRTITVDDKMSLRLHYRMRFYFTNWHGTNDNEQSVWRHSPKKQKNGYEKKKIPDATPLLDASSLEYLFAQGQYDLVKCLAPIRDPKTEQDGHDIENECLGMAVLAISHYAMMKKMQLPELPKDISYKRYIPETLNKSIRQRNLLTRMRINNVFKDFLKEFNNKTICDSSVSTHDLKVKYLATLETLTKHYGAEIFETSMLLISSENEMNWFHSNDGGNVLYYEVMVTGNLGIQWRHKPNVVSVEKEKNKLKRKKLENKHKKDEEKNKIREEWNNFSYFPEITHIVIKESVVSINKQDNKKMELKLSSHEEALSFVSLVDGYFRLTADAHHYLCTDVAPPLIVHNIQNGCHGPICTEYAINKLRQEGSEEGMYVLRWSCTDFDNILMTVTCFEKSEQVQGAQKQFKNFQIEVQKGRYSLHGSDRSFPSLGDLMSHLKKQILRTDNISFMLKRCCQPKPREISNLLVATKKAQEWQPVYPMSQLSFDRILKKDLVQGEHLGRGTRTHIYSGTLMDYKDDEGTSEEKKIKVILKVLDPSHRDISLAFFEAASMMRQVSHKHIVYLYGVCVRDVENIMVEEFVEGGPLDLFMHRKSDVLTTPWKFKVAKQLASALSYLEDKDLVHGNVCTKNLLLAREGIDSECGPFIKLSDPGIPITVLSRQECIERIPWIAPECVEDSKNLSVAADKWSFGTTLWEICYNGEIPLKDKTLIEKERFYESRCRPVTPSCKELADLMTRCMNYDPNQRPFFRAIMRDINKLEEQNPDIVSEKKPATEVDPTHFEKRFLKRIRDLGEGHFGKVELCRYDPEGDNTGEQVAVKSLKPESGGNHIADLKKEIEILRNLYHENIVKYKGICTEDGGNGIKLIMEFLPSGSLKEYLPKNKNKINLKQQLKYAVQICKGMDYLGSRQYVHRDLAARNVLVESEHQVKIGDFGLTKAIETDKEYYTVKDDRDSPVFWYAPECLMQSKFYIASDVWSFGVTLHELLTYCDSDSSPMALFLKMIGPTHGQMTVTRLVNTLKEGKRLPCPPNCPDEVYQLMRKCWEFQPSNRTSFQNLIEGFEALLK", "experiment": "NanoBRET assay (JAK1, SGC Frankfurt)"}, "[3]": {"target": "Tyrosine-protein kinase JAK2 (Homo sapiens, UniProt O60674)", "sequence (O60674 whole entry)": "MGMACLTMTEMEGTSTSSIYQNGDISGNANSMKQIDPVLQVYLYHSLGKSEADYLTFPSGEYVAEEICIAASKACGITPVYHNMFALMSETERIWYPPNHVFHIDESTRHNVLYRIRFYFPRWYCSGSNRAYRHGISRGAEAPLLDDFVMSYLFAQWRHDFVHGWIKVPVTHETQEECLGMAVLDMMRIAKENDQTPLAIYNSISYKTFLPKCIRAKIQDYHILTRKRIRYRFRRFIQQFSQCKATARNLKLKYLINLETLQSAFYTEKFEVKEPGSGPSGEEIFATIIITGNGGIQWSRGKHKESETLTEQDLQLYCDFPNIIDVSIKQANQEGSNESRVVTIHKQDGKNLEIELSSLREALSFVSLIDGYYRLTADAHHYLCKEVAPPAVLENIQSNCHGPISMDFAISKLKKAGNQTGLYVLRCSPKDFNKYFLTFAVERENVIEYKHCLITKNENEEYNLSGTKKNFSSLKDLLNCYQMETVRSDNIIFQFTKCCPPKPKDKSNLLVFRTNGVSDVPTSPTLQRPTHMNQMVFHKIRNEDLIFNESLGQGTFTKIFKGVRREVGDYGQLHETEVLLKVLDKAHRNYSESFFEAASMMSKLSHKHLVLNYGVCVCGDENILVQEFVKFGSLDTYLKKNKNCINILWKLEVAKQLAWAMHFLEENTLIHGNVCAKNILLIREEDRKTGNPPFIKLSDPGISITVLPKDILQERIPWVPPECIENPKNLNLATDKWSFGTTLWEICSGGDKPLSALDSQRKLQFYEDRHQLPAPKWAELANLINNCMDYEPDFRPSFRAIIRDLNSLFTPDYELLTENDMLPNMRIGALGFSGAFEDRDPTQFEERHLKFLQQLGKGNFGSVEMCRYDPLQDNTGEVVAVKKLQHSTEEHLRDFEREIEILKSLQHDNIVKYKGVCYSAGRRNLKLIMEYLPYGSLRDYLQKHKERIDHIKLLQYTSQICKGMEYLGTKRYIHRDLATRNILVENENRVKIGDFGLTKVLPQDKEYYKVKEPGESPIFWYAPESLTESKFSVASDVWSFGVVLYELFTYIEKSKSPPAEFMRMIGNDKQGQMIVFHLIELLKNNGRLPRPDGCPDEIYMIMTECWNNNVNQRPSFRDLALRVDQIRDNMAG", "experiment": "NanoBRET assay (JAK2, SGC Frankfurt)"}}, "data": [{"smiles": "CN(C(=O)c1cnn2cccnc12)c1cc2c(cc1N1CCOCC1)C(=O)N(C[C@@H](F)C(C)(C)O)C2", "values": [{"measurement": "EC50", "setting": "[1]", "result": "3.6 µM (not active)"}, {"measurement": "EC50", "setting": "[2]", "result": "> 50 µM (not active)"}, {"measurement": "EC50", "setting": "[3]", "result": "> 50 µM (not active)"}]}]}
